Results published in patent US11744844B2, “Selective estrogen receptor degraders” (Eli Lilly and Company, priority 2021, dated 2023).
Where a name gives a salt, the structure may show the parent alone.

Target: T1, ERα (Homo sapiens, UniProt P03372)
T1 construct: measure the degradation of ERα by a test compound in an ERα positive breast cancer cell line such as MCF7; host or cells: MCF7
T1 sequence (P03372 1-595): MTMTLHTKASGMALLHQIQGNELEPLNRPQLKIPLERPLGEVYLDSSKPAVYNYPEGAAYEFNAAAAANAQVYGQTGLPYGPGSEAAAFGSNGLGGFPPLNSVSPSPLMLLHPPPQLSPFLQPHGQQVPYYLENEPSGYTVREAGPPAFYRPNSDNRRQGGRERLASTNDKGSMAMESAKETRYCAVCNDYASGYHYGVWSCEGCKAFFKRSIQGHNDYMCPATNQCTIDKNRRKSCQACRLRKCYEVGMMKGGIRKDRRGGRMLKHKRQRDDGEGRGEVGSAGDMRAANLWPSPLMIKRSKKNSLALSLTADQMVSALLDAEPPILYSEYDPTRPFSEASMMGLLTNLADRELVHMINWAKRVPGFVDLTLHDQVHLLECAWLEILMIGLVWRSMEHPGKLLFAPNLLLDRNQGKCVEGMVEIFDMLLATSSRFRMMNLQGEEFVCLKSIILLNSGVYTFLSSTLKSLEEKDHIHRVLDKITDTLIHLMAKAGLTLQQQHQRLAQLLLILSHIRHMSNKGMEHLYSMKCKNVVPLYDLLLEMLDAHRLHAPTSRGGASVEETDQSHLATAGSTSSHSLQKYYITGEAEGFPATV
Test: ERα degradation assay in MCF7 cells
Assay type: cell-based
Settings: 24 hours incubation, read-out: Relative IC50, ERα degradation (% ER positive cells)
Description: The purpose of the following ERα degradation assay is to measure the degradation of ERα by a test compound in an ERα positive breast cancer cell line such as MCF7.
Culture MCF7 (purchased from ATCC HTB-22) cells in DMEM media supplemented with 10% FBS, 0.01 mg/mL human insulin 1 and 1% penicillin/streptomycin antibiotics and plate in 384-well flat-bottom plates at a density of 4,000 cells per well in phenol red free DMEM media (20 μL) containing 10% charcoal stripped FBS. Incubate the cells overnight in a cell culture incubator (5% CO2, 95% relative humidity and 37° C.) and allow the cells to attach to the plate. The following day dose the cells with the test compound. Use an Echo 555 acoustic dispenser to prepare test compound serial dilutions (1:3) in a range from 6 μM to 0.0003 μM. Dose the cells with the addition of 5 μL from the serial dilution plate to the cell plate producing a final DMSO concentration of 0.2% with a final test compound concentration dose range between 2 and 0.0001 μM. For the maximum point, use media containing 0.2% of DMSO and for the minimum point, use fulvestrant diluted at 2 μM final concentrations in the growth media containing 0.2% DMSO. […] Scan the plates with ACUMEN EXPLORER™ (Laser-scanning fluorescence microplate cytometer manufactured by TTP LABTECH LTD) to measure ERα. […]

Structure (SMILES)	DC50
O=C(O)[C@H]1O[C@@H](Oc2ccc3c4c(cnc3c2)-c2ccc(C(F)(F)F)cc2O[C@@H]4c2ccc(OCCN3CC(CF)C3)cc2)[C@H](O)[C@@H](O)[C@@H]1O [Example 2, (2S,3S,4S,5R,6S)-6-[[(5R)-5-[4-[2-[3-(Fluoromethyl)azetidin-1-yl]ethoxy]phenyl]-8-(trifluoromethyl)-5H-chromeno[4,3-c]quinolin-2-yl]oxy]-3,4,5-trihydroxy-tetrahydropyran-2-carboxylic acid]	0.211 ± 0.0692 µM
O=S(=O)(O)Oc1ccc2c3c(cnc2c1)-c1ccc(C(F)(F)F)cc1O[C@@H]3c1ccc(OCCN2CC(CF)C2)cc1 [Example 1, [(5R)-5-[4-[2-[3-(Fluoromethyl)azetidin-1-yl]ethoxy]phenyl]-8-(trifluoromethyl)-5H-chromeno[4,3-c]quinolin-2-yl]hydrogen sulfate]	0.115 ± 0.0184 µM
